This is an account of results in patent publication US10077261B2, “Imidazolin-5-one derivative useful as FASN inhibitors for the treatment of cancer” (Janssen Pharmaceutica NV, priority 2012, dated 2018).

The assay addresses T1, hFASN enzyme (full length) (Homo sapiens, UniProt P49327).
T1 construct: 10 μL hFASN enzyme (full length, 300 ng, purified in house); made in house
In words: Fatty Acid Synthase (FASN) inhibition scintillation proximity assay. The class given is biochemical. Conditions: for inhibition at 10 µM: read-out: Human FASN % inhibition @ 10 μM, 10 μM test compound; for IC50: read-out: Human FASN pIC50 (converted). The protocol:
In this assay, inhibition of FASN activity is measured using ^3H-acetyl-CoA and malonyl-CoA as substrates. ^3H-Acetyl CoA is converted to ^3H-palmitate through a series of reactions by the FASN protein, which contains 7 functional domains and carries out 7 enzymatic reactions to ultimately produce ^3H-palmitate. The assay principle is based upon the fact that ^3H-acetyl-CoA is hydrophilic and the end product, ^3H-palmitate is hydrophobic.
10 μL assay buffer (100 mM KH2PO4 pH 7.5, 1 mM DTT) (20 μL in blanks) was added to a 384-well white optiplate plate (Perkin Elmer). 0.9 μL test compound (at concentrations of 30 μM, 10 μM, 3 μM, 1 μM, 0.30 μM, 0.10 μM, 0.03 μM and 0.01 μM)/DMSO and 10 μL hFASN enzyme (full length, 300 ng, purified in house) or 10 μL assay buffer was added to the wells. […] The reaction was stopped by adding 20 μL Streptavidin coupled imaging beads (25 mg/ml). After incubation for 30 minutes at room temperature in the dark, the 384 well plate was centrifuged at 1500 rpm for 3 minutes and was measured after at least 24 hrs by the LEADseeker™, measuring emission using a 610±20 nm pass filter.
where mLC and mHC were the means of the low control wells and high control wells on the plate, after manual exclusion of outliers. A plot of Controlmin versus test compound concentration was fitted to a 4-parameter logistic curve using a non-linear least squares regression method.
On the technique in general: SPA uses beads or plates that emit light when radiolabelled molecules are held near them.

T1 sequence (P49327 whole entry): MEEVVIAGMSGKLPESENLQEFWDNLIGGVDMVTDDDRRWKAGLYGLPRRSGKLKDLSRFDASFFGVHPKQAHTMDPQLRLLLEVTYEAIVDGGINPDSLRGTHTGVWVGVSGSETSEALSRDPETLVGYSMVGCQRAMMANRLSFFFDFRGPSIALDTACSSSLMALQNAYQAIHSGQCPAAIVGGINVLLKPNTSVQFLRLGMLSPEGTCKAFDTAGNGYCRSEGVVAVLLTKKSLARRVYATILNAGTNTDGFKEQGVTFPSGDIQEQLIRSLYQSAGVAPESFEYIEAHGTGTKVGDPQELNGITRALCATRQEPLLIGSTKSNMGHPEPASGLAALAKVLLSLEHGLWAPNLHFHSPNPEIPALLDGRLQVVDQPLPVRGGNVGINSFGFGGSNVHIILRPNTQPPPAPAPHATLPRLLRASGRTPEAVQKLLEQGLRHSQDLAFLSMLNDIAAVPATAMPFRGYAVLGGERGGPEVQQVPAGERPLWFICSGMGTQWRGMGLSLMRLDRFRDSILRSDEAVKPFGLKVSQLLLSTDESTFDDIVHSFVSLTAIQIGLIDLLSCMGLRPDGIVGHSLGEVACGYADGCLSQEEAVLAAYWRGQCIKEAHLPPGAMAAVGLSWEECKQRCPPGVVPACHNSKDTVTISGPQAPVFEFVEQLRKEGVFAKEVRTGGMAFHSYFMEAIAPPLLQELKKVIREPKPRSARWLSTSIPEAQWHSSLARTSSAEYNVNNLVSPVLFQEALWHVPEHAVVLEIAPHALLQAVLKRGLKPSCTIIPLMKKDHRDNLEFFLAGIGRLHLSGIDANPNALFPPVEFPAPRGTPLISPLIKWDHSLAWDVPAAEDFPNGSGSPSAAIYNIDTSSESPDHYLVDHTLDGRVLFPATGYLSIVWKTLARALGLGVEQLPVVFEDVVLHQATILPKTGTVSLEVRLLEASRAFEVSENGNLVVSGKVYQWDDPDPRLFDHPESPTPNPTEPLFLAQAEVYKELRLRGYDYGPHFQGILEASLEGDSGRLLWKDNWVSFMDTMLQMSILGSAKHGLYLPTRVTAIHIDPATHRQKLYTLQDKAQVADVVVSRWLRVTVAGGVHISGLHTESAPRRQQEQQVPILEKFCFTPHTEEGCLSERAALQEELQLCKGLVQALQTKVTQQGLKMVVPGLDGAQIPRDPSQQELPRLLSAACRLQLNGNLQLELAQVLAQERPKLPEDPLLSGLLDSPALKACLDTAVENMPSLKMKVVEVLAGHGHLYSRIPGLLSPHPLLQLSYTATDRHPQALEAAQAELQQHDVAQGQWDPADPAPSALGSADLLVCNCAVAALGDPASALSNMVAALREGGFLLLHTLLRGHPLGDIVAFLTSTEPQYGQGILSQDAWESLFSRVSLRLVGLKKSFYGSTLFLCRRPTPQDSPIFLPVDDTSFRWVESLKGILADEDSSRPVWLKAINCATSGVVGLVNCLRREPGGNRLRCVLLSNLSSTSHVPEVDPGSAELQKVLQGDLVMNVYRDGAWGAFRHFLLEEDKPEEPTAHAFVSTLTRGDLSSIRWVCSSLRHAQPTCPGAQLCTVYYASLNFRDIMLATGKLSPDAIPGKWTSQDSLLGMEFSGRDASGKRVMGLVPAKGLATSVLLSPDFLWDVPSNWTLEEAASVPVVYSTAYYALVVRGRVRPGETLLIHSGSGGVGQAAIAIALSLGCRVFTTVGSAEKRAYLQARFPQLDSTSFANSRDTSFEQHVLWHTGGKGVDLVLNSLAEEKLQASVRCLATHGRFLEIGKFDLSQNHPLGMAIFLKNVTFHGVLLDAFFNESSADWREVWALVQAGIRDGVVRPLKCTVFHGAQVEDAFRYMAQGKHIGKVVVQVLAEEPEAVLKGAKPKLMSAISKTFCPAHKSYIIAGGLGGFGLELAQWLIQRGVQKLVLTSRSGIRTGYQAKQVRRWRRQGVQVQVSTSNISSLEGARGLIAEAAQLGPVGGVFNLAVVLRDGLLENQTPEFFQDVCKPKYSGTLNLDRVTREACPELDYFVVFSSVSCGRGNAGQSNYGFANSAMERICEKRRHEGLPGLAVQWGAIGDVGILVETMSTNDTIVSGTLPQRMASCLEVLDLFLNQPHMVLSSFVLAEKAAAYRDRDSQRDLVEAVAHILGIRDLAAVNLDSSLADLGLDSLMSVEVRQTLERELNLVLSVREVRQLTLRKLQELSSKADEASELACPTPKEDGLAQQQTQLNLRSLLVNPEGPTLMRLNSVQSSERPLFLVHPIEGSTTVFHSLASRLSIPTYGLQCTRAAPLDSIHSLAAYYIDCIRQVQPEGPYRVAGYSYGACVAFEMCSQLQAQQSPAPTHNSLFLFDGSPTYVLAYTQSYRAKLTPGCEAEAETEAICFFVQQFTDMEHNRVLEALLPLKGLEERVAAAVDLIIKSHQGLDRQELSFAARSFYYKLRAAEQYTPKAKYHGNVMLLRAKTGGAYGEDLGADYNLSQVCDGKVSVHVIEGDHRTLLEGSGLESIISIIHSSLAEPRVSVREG

The inhibition is the relative decrease from the control value, in per cent. For the compound `CC(C)C(=O)N1CCC2(CC1)N=C(c1ccc(-c3ccc4c(cnn4C)c3)cc1)N(CC1CN(C(=O)C3CC3)C1)C2=O` [compound 135, 3-{[1-(Cyclopropylcarbonyl)azetidin-3-yl]methyl}-2-[4-(1-methyl-1H-indazol-5-yl)phenyl]-8-(2-methylpropanoyl)-1,3,8-triazaspiro[4.5]dec-1-en-4-one], the inhibition at 10 µM came to 78.9% and the IC50 was 2450 nM.
Taken in the same sequence, the figures for `CN(C)CC(=O)N1CCC2(CC1)N=C(c1ccc(-c3ccc4c(cnn4C)c3)cc1)N(CC1CN(C(=O)C3CC3)C1)C2=O` [compound 136, 3-{[1-(Cyclopropylcarbonyl)azetidin-3-yl]methyl}-8-(N,N-dimethylglycyl)-2-[4-(1-methyl-1H-indazol-5-yl)phenyl]-1,3,8-triazaspiro[4.5]dec-1-en-4-one] were 77.7% and 2950 nM.
Taken in the same sequence, the figures for `CC(C)C(=O)N1CCC2(CC1)N=C(c1ccc(-c3ccc4c(cnn4C)c3)cc1)N(C[C@@H]1CCN(C(=O)C3CC3)C1)C2=O` [compound 139, (R)-3-((1-(cyclopropanecarbonyl)pyrrolidin-3-yl)methyl)-8-isobutyryl-2-(4-(1-methyl-1H-indazol-5-yl)phenyl)-1,3,8-triazaspiro[4.5]dec-1-en-4-one] were 112% and 174 nM.
For `Cn1ncc2cc(-c3ccc(C4=NC5(CCN(C(=O)C6CC6)CC5)C(=O)N4C[C@@H]4CCN(C(=O)C5CC5)C4)cc3)ccc21` [compound 140, 8-(Cyclopropylcarbonyl)-3-{[(3R)-1-(cyclopropylcarbonyl)pyrrolidin-3-yl]methyl}-2-[4-(1-methyl-1H-indazol-5-yl)phenyl]-1,3,8-triazaspiro[4.5]dec-1-en-4-one], in that order: 114% and 224 nM.
On to `CN(C)CC(=O)N1CCC2(CC1)N=C(c1ccc(-c3ccc4c(cnn4C)c3)cc1)N(C[C@@H]1CCN(C(=O)C3CC3)C1)C2=O` [compound 141, 3-{[(3R)-1-(Cyclopropylcarbonyl)pyrrolidin-3-yl]methyl}-8-(N,N-dimethylglycyl)-2-[4-(1-methyl-1H-indazol-5-yl)phenyl]-1,3,8-triazaspiro[4.5]dec-1-en-4-one], for which the inhibition at 10 µM worked out at 110% and the IC50 was 251 nM.
Taken in the same sequence, the figures for `CN(C)CC(=O)N1CCC2(CC1)N=C(c1ccc(-c3ccc4cnccc4c3)cc1)N(C[C@@H]1CCN(C(=O)C3CC3)C1)C2=O` [compound 142, 3-{[(3R)-1-(Cyclopropylcarbonyl)pyrrolidin-3-yl]methyl}-8-(N,N-dimethylglycyl)-2-(4-isoquinolin-6-ylphenyl)-1,3,8-triazaspiro[4.5]dec-1-en-4-one] were 119% and 69.2 nM.
For `CC(C)C(=O)N1CCC2(CC1)N=C(c1ccc(-c3ccc4cnccc4c3)cc1)N(C[C@@H]1CCN(C(=O)C3CC3)C1)C2=O` [compound 143, 3-{[(3R)-1-(Cyclopropylcarbonyl)pyrrolidin-3-yl]methyl}-2-(4-isoquinolin-6-ylphenyl)-8-(2-methylpropanoyl)-1,3,8-triazaspiro[4.5]dec-1-en-4-one], in that order: 119% and 36.3 nM.
Turning to `CC(=O)N1CCC2(CC1)N=C(c1ccc(-c3ccc4cnccc4c3)cc1)N(C[C@@H]1CCN(C(=O)C3CC3)C1)C2=O` [compound 144, 8-Acetyl-3-{[(3R)-1-(cyclopropylcarbonyl)pyrrolidin-3-yl]methyl}-2-(4-isoquinolin-6-ylphenyl)-1,3,8-triazaspiro[4.5]dec-1-en-4-one], the inhibition at 10 µM came out at 117% and the IC50 was 63.1 nM.
Taken in the same sequence, the figures for `CN(C)c1cccc(-c2ccc(C3=NC4(CC4)C(=O)N3C[C@@H]3CCN(C(=O)C4CC4)C3)cc2)c1` [compound 145, 6-{[(3R)-1-(Cyclopropylcarbonyl)pyrrolidin-3-yl]methyl}-5-[3′-(dimethylamino)biphenyl-4-yl]-4,6-diazaspiro[2.4]hept-4-en-7-one] were 106% and 398 nM.
